Legend:
Assay in all cases: HPLC product formation, Michaelis-Menten
Type in all cases: biochemical, Sarcandra glabra
SgHQT1 = system: T1, SgHQT1; details: 0.1 M potassium phosphate, exact conditions in Table S13
T1 construct: full length, 427 residues, 47772 Da
Text: HPLC product formation, Michaelis-Menten on SgHQT1

SgHST = system: T2, SgHST; details: 0.1 M potassium phosphate, exact conditions in Table S12
T2 construct: full length, 436 residues, 48424 Da
Text: HPLC product formation, Michaelis-Menten on SgHST

SgRAS = system: T3, SgRAS; details: 0.1 M potassium phosphate, exact conditions in Table S15
T3 construct: full length, 449 residues, 49348 Da
Text: HPLC product formation, Michaelis-Menten on SgRAS

SgHQT2 = system: T4, SgHQT2; details: 0.1 M potassium phosphate, exact conditions in Table S14
T4 construct: full length (5'-RACE), 441 residues, 48847 Da
Text: HPLC product formation, Michaelis-Menten on SgHQT2

[1] = with 4-hydroxyphenyllactic acid (pHPL)

## CC(C)(COP(=O)(O)OP(=O)(O)OC[C@H]1O[C@@H](n2cnc3c(N)ncnc32)[C@H](O)[C@@H]1OP(=O)(O)O)[C@@H](O)C(=O)NCCC(=O)NCCSC(=O)/C=C/c1ccc(O)cc1 [p‐Coumaroyl‐CoA]
SgHQT1; with quinic acid
  Km: 19.9 ± 3.4 µM
SgHST; with shikimic acid
  Km: 17.4 ± 4.9 µM
SgRAS; [1]
  Km: 14.6 ± 1.7 µM
SgHQT2; with quinic acid
  Km: 82.3 ± 14.8 µM

## CC(C)(COP(=O)(O)OP(=O)(O)OC[C@H]1O[C@@H](n2cnc3c(N)ncnc32)[C@H](O)[C@@H]1OP(=O)(O)O)[C@@H](O)C(=O)NCCC(=O)NCCSC(=O)/C=C/c1ccc(O)c(O)c1 [Caffeoyl‐CoA]
SgHQT1; with quinic acid
  Km: 9.3 ± 2.5 µM
SgHST; with shikimic acid
  Km: 21.4 ± 6.8 µM
SgRAS; [1]
  Km: 57.2 ± 15.7 µM
SgHQT2; with quinic acid
  Km: 213 ± 53.5 µM

## O=C(O)C(O)Cc1ccc(O)cc1 (stereo not shown) [4‐hydroxyphenyllactic acid]
SgRAS; with p-coumaroyl-CoA
  Km: 544 ± 47.4 µM

## O=C(O)[C@H](O)Cc1ccc(O)c(O)c1
SgRAS; with p-coumaroyl-CoA
  Km: 867 ± 105 µM

## O=C(O)[C@]1(O)C[C@@H](O)[C@@H](O)[C@H](O)C1 [Quinic acid]
SgHQT1; with p-coumaroyl-CoA
  Km: 5520 ± 713 µM
SgHST; with p-coumaroyl-CoA
  K m (μM): 16 740.0 ± 1833.0 μM
SgHQT2; with p-coumaroyl-CoA
  Km: 11100 ± 1560 µM

## Nc1c(O)cccc1C(=O)O [3‐Hydroxyanthranilic acid, 2‐amino‐3‐hydroxybenzoic]
SgHST; with p-coumaroyl-CoA
  Km: 238 ± 19.6 µM

## O=C(O)C1=C[C@@H](O)[C@@H](O)[C@H](O)C1 [Shikimic acid]
SgHQT1; with p-coumaroyl-CoA, n = 3 ± SD
  K m (μM): 85 440.0 ± 18 700.0 μM
SgHST; with p-coumaroyl-CoA
  Km: 1220 ± 153 µM

Reference: PMC11875395, “Phenolic metabolism in Sarcandra glabra is mediated by distinct BAHD hydroxycinnamoyltransferases” (The Plant Journal, 2025)
